Data taken from patent US8148097B2, “Screening method for identification of compounds with calcium-independent phospholipase A2β (iPLA2β) modulating activity” (Washington University, priority 2005, dated 2012).

Target: T1, iPLA2β (Cricetulus griseus, UniProt A0A3L7I2I8)
T1 construct: (His)6; made in house; host or cells: Sf9 insect cells (baculovirus)
T1 sequence (A0A3L7I2I8 1-752 isoform A0A3L7I2I8-2): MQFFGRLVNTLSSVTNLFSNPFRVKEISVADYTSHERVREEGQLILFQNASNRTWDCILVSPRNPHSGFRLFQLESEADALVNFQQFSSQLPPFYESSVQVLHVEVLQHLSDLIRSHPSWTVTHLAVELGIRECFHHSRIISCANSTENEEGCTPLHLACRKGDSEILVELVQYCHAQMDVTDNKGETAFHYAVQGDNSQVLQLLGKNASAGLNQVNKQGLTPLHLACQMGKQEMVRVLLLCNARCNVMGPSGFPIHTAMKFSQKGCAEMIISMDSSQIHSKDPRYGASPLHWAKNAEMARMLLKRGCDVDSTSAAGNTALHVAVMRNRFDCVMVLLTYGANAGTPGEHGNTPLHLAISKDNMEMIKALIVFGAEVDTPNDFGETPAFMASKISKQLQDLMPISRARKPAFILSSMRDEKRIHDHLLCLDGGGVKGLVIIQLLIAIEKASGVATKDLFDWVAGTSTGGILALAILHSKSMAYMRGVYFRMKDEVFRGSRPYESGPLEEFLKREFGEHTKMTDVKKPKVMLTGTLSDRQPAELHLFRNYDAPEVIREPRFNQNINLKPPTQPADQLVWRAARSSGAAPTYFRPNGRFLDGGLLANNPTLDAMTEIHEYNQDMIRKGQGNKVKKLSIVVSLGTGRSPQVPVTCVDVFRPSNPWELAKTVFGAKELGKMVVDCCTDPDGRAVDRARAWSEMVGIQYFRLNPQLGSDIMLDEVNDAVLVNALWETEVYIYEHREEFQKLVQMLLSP
Assay: Real-time fluorescence BODIPY-PC assay of iPLA2β phospholipase A2 activity
Type: biochemical
Description: FIGS. 11A-11D—Purified iPLA2β+/−Ca^2+/CaM was incubated with POPC/BODIPY-PC (95:5 mol %) host vesicles for 2 min at 37° C. with the indicated concentrations of guest oleoyl-CoA. Relative fluorescence was recorded utilizing 495 nm excitation and 515 nm emission wavelengths as described in Experimental Procedures. FIGS. 11E-11H—ESI-MS analysis of phosphatidylcholine molecular species from the reactions described in panels A and D. Spectra were acquired in the positive ion mode with the indicated internal standards as described in Experimental Procedures. FIG. 11I—Purified iPLA2β in the presence or absence of Ca^2+/CaM was incubated with 1-palmitoyl-2-[1-^14C]-oleoyl-sn-glycero-3-phosphocholine (100 μM) host vesicles with or without guest oleoyl-CoA (10 μM) for 3 min at 37° C. Radiolabeled fatty acid was extracted into butanol, resolved by TLC, and quantified by scintillation spectrometry as described in Experimental Procedures.
Phospholipase A2 and Acyl-CoA Hydrolase Enzymatic Assays—Purified recombinant iPLA2β(His)6 (peptide disclosed as SEQ ID NO: 4) (0.1-1 μg) was incubated with radiolabeled phospholipid or acyl-CoA in 25 mM Tris-HCl, pH 7.2 containing 1 mM EGTA (200 μl final volume) for 1-2 mm at 37° C. […] Incorporation of acyl-CoA into the POPC/DOPS vesicles employed was determined as described previously (64). Reactions were terminated by extraction of the released radiolabeled fatty acids into 100 μl butanol, separation of fatty acids from unreacted substrate by thin layer chromatography, and quantitation by scintillation spectroscopy as previous described (65). For tests examining the effects of acyl-CoAs on calmodulin-mediated inhibition of iPLA2β, phospholipase A2 activity was continuously measured utilizing a SPECTRAmax GEMINI XS Dual-Scanning Microplate Spectrofluorometer (Molecular Devices). […] Fluorescence readings were acquired at 20 sec intervals for 5 mm at 37° C. utilizing excitation/emission wavelengths of 495/515 nm, respectively. […]

## CCCCCCCC/C=C\CCCCCCCC(=O)SCCNC(=O)CCNC(=O)[C@H](O)C(C)(C)COP(=O)(O)OP(=O)(O)OC[C@H]1O[C@@H](n2cnc3c(N)ncnc32)[C@H](O)[C@@H]1OP(=O)(O)O [oleoyl-CoA]
5 μM oleoyl-CoA
  reversal of calmodulin-mediated inhibition of iPLA2β phospholipase A2 activity: significant reversal
1 mol % oleoyl-CoA, FIG. 11B
  activity of CaM-inhibited iPLA2β, % of initial activity: ≈ 40%
2.5-5 mol % oleoyl-CoA, FIG. 11C-D
  effect on CaM mediated inhibition of iPLA2β: completely eliminated CaM mediated inhibition
